Measurements reported in US9645134B1, “Isotopically-labeled solvents and the use of same in testing e-cigarettes” (Celerion, Inc., priority 2013, dated 2017).
Like-named read-outs stand apart in the source and are kept apart here.

Assays:
[1] = clinical study: plasma labeled and unlabeled PG by LC-MS/MS after vaporizer use or second-hand exposure; assay type: in vivo, human
Excerpt: A clinical study protocol was generated. The objectives of this study were to measure C13-labeled PG in blood and to evaluate the extent of second-hand exposure to PG and nicotine during use of a commercially-available electronic nicotine delivery system (vaporizer).
All subjects completed screening procedures and checked in to the clinic on the morning of the Test Visit. All subjects remained in the clinic until the completion of the final study procedure later that day.
Following completion of check-in procedures, all subjects were seated in a room together approximately 30 minutes prior to the start of product administration. Subjects in the vaping group began using the vaporizers as directed by the clinic staff—one inhalation at least 3 seconds in duration every 30 seconds for a total of 30 inhalations. Each vaporizer contained a 1.8 v/v % nicotine solution in a PG vehicle. […]
The samples were kept at room temperature prior to centrifuge, and were centrifuged at 2500 RPM for 15 minutes at 4° C. within 60 minutes of collection. […] (+/− 10° C.) or below (within 90 minutes from collection) until analyzed by Celerion Bioanalytical Services. […]
Plasma PG (labeled and unlabeled) and nicotine were analyzed by LC-MS/MS using analytical methods with appropriate quality controls in accordance with FDA Good Laboratory Practice (GLP) regulations (Title 21 CFR Part 58). […]

rabbit = settings: cited from earlier work
[2] = in vivo; cited from earlier work

With `[13CH3][13CH](O)[13CH2]O` (stereo not drawn) [Species A3, Propyleneglycol-^13C3] the “blood concentration of labeled propylene glycol” value ([1]; non-vaping subjects (Subjects 4-6), in room with vaping subjects, FIG. 2) was “essentially no detectable levels”.
For `OCC(O)CO` [glycerol, propane-1,2,3-triol], the “acute oral toxicity LD50” value (rabbit; in vivo, po) is listed as 10,000 mg/kg.
In the case of propane-1,2-diol [propylene glycol], the “acute oral toxicity LD50” value (rabbit; oral) is listed as 18500 mg/kg, the “blood concentration of unlabeled propylene glycol” value ([1]; all subjects (Subjects 1-6), meal high in PG at about 4 hours, FIG. 3) is listed as “significant” and the “excreted by the kidneys unchanged or as the glucuronide conjugate” value [2] is listed as “approximately 45%”. The half-life [2] was “approximately 4 hours”.
